What was measured:
UO-31 = conditions: UO-31, Renal; for CC50: read-out: 50% lethal concentration (LC50)
HCT-116 = assay type: cell-based; conditions: HCT-116, Colon
HL-60(TB) = conditions: for GI50 / Total growth inhibition (TGI): Leukemia; for CC50: read-out: 50% lethal concentration (LC50), Leukemia
OVCAR-8 = conditions: OVCAR-8, Ovarian; for CC50: read-out: 50% lethal concentration (LC50)
SNB-19 = assay type: cell-based; conditions: SNB-19, CNS
SK-MEL-28 = conditions: SK-MEL-28, Melanoma; for CC50: read-out: 50% lethal concentration (LC50)
SF-295 = conditions: SF-295, CNS; for CC50: read-out: 50% lethal concentration (LC50)
PC-3 = conditions: PC-3, Prostate; for CC50: read-out: 50% lethal concentration (LC50)
T-47D = conditions: for GI50 / Total growth inhibition (TGI): Breast; for CC50: read-out: 50% lethal concentration (LC50), Breast
MOLT-4 = conditions: MOLT-4, Leukemia; for CC50: read-out: 50% lethal concentration (LC50)
TK-10 = assay type: cell-based; conditions: TK-10, Renal
SK-MEL-5 = conditions: SK-MEL-5, Melanoma; for CC50: read-out: 50% lethal concentration (LC50)
SF-539 = conditions: SF-539, CNS; for CC50: read-out: 50% lethal concentration (LC50)
K-562 = conditions: K-562, Leukemia; for CC50: read-out: 50% lethal concentration (LC50)
KM12 = conditions: KM12, Colon
ACHN = conditions: for GI50 / Total growth inhibition (TGI): Renal; for CC50: read-out: 50% lethal concentration (LC50), Renal
[1] = DPPH radical scavenging assay; conditions: 25 µM test compound, 0.1 mM DPPH, acetonitrile, 30 min
Experimental: A stable free radical DPPH (2,2-Diphenyl-1-picrylhydrazyl) assay was employed to test the antioxidant activity of all the synthesized compounds. Concisely, 25 µM of the test compounds were dissolved in acetonitrile and combined with 0.1 mM of DPPH (in acetonitrile) in a 1:2 ratio (80 µL and 160 µL). Then, the mixture was left undisturbed in the dark for 30 min at room temperature. After 30 min, the absorbance of the solutions was instantly measured at 517 nm using a Varioskan Multiplate Reader (Thermo Fisher Scientific, Mumbai, India). Ascorbic acid (in acetonitrile) was used as the positive control, and andrographolide and isoandrogapholide (in acetonitrile) were used as the standards. The following equation was used to determine the DPPH radical scavenging activity:% Radical scavenging activity = (Ac − As)/Ac × 100 where Ac = the absorbance of the blank (DPPH solution), and As = the absorbance of the test samples

MCF7 = conditions: MCF7, Breast; for CC50: read-out: 50% lethal concentration (LC50)
MALME-3M = conditions: Melanoma
786-0 = conditions: 786-0, Renal; for CC50: read-out: 50% lethal concentration (LC50)
SNB-75 = conditions: SNB-75, CNS; for CC50: read-out: 50% lethal concentration (LC50)
M14 = assay type: cell-based; conditions: M14, Melanoma
SN12C = conditions: for GI50 / Total growth inhibition (TGI): Renal; for CC50: read-out: 50% lethal concentration (LC50), Renal
SW-620 = conditions: SW-620, Colon; for CC50: read-out: 50% lethal concentration (LC50)
COLO 205 = conditions: COLO 205, Colon
RPMI-8226 = conditions: RPMI-8226, Leukemia; for CC50: read-out: 50% lethal concentration (LC50)
SF-268 = conditions: SF-268, CNS; for CC50: read-out: 50% lethal concentration (LC50)
U251 = conditions: U251, CNS
MDA-MB-231 = conditions: for GI50: MDA-MB-231, Breast; for Total growth inhibition (TGI) / CC50: MDA-MB-231/ATCC, Breast; for CC50: read-out: 50% lethal concentration (LC50)
[2] = read-out: 50% lethal concentration (LC50)

SMILES: C=C1CCC2C3(C)COC(c4cn(-c5ccccc5)nc4-c4cccc(F)c4)OC3CCC2(C)C1CC=C1C(=O)OCC1O (stereo not drawn) [1c]
- GI50 (UO-31): 1.78 µM
- Total growth inhibition (TGI) (UO-31): 2.77 µM
- CC50 (UO-31): 5.46 µM
- GI50 (HCT-116): 3.48 µM
- Total growth inhibition (TGI) (HCT-116): 1.59 µM
- GI50 (HL-60(TB)): 0.76 µM
- Total growth inhibition (TGI) (HL-60(TB)): > 100 µM
- CC50 (HL-60(TB)): > 100 µM
- GI50 (OVCAR-8): 1.77 µM
- Total growth inhibition (TGI) (OVCAR-8): 3.88 µM
- CC50 (OVCAR-8): 8.5 µM
- Total growth inhibition (TGI) (SNB-19): 2.72 µM
- GI50 (SK-MEL-28): 1.77 µM
- Total growth inhibition (TGI) (SK-MEL-28): 3.35 µM
- CC50 (SK-MEL-28): 6.36 µM
- GI50 (SF-295): 1.52 µM
- Total growth inhibition (TGI) (SF-295): 2.88 µM
- CC50 (SF-295): 5.49 µM
- GI50 (PC-3): 1.97 µM
- Total growth inhibition (TGI) (PC-3): 4.56 µM
- CC50 (PC-3): > 100 µM
- GI50 (T-47D): 1.39 µM
- Total growth inhibition (TGI) (T-47D): 4.07 µM
- CC50 (T-47D): > 100 µM
- GI50 (MOLT-4): 0.69 µM
- CC50 (MOLT-4): > 100 µM
- GI50 (TK-10): 1.41 µM
- GI50 (SK-MEL-5): 1.65 µM
- Total growth inhibition (TGI) (SK-MEL-5): 3.02 µM
- CC50 (SK-MEL-5): 5.51 µM
- GI50 (SF-539): 1.77 µM
- Total growth inhibition (TGI) (SF-539): 3.17 µM
- CC50 (SF-539): 5.68 µM
- GI50 (K-562): 2.14 µM
- Total growth inhibition (TGI) (K-562): > 100 µM
- CC50 (K-562): > 100 µM
- GI50 (KM12): 2.26 µM
- Total growth inhibition (TGI) (KM12): 4.47 µM
- GI50 (ACHN): 1.8 µM
- Total growth inhibition (TGI) (ACHN): 3.53 µM
- CC50 (ACHN): 6.94 µM
- % DPPH radical scavenging activity [1]: 58.33%
- GI50 (MCF7): 1.63 µM
- Total growth inhibition (TGI) (MCF7): 5.49 µM
- CC50 (MCF7): 50.1 µM
- GI50 (MALME-3M): 1.87 µM
- Total growth inhibition (TGI) (MALME-3M): 3.5 µM
- GI50 (786-0): 1.78 µM
- Total growth inhibition (TGI) (786-0): 3.59 µM
- CC50 (786-0): 7.24 µM
- Total growth inhibition (TGI) (SNB-75): 3.55 µM
- CC50 (SNB-75): 5.82 µM
- GI50 (M14): 1.75 µM
- Total growth inhibition (TGI) (M14): 3.59 µM
- GI50 (SN12C): 1.59 µM
- Total growth inhibition (TGI) (SN12C): 3.42 µM
- CC50 (SN12C): 7.34 µM
- GI50 (SW-620): 5.71 µM
- Total growth inhibition (TGI) (SW-620): > 100 µM
- CC50 (SW-620): > 100 µM
- GI50 (COLO 205): 2.06 µM
- Total growth inhibition (TGI) (COLO 205): 4.65 µM
- GI50 (RPMI-8226): 2.63 µM
- Total growth inhibition (TGI) (RPMI-8226): > 100 µM
- CC50 (RPMI-8226): > 100 µM
- GI50 (SF-268): 2.27 µM
- Total growth inhibition (TGI) (SF-268): 5.61 µM
- CC50 (SF-268): 28.4 µM
- GI50 (U251): 1.81 µM
- Total growth inhibition (TGI) (U251): 5.61 µM
- GI50 (MDA-MB-231): 1.72 µM
- Total growth inhibition (TGI) (MDA-MB-231): 3.29 µM
- CC50 (MDA-MB-231): 6.28 µM

SMILES: C=C1CCC2C3(C)COC(c4cn(-c5ccccc5)nc4-c4ccc(OC)cc4)OC3CCC2(C)C1CC=C1C(=O)OCC1O (stereo not drawn) [1j]
- GI50 (UO-31): 1.22 µM
- Total growth inhibition (TGI) (UO-31): 2.54 µM
- CC50 (UO-31): 5.25 µM
- GI50 (HCT-116): 1.4 µM
- Total growth inhibition (TGI) (HCT-116): 3.11 µM
- GI50 (HL-60(TB)): 1.08 µM
- Total growth inhibition (TGI) (HL-60(TB)): 3.96 µM
- CC50 (HL-60(TB)): > 100 µM
- GI50 (OVCAR-8): 1.35 µM
- Total growth inhibition (TGI) (OVCAR-8): 2.84 µM
- CC50 (OVCAR-8): 5.97 µM
- GI50 (SNB-19): 2.46 µM
- Total growth inhibition (TGI) (SNB-19): 7.42 µM
- CC50 (SNB-19; [2]): 34.6 µM
- GI50 (SK-MEL-28): 1.94 µM
- Total growth inhibition (TGI) (SK-MEL-28): 3.69 µM
- CC50 (SK-MEL-28): 7.01 µM
- GI50 (SF-295): 1.43 µM
- Total growth inhibition (TGI) (SF-295): 2.78 µM
- CC50 (SF-295): 5.39 µM
- GI50 (PC-3): 2.18 µM
- CC50 (PC-3): > 100 µM
- GI50 (T-47D): 1.8 µM
- Total growth inhibition (TGI) (T-47D): 5.02 µM
- CC50 (T-47D): > 100 µM
- GI50 (MOLT-4): 1.71 µM
- Total growth inhibition (TGI) (MOLT-4): 7.57 µM
- CC50 (MOLT-4): > 100 µM
- GI50 (TK-10): 1.95 µM
- Total growth inhibition (TGI) (TK-10): 4.13 µM
- CC50 (TK-10; [2]): 8.77 µM
- GI50 (SK-MEL-5): 1.54 µM
- Total growth inhibition (TGI) (SK-MEL-5): 2.89 µM
- CC50 (SK-MEL-5): 5.41 µM
- GI50 (SF-539): 1.69 µM
- Total growth inhibition (TGI) (SF-539): 3.1 µM
- CC50 (SF-539): 5.7 µM
- GI50 (K-562): 1.9 µM
- CC50 (K-562): > 100 µM
- GI50 (KM12): 1.66 µM
- Total growth inhibition (TGI) (KM12): 3.31 µM
- GI50 (ACHN): 1.52 µM
- Total growth inhibition (TGI) (ACHN): 2.87 µM
- CC50 (ACHN): 5.41 µM
- % DPPH radical scavenging activity [1]: 59.2%
- GI50 (MCF7): 1.46 µM
- Total growth inhibition (TGI) (MCF7): > 100 µM
- CC50 (MCF7): > 100 µM
- GI50 (MALME-3M): 1.54 µM
- Total growth inhibition (TGI) (MALME-3M): 2.93 µM
- GI50 (786-0): 2.3 µM
- Total growth inhibition (TGI) (786-0): 5.59 µM
- CC50 (786-0): > 100 µM
- GI50 (SNB-75): 1.15 µM
- Total growth inhibition (TGI) (SNB-75): 5.09 µM
- CC50 (SNB-75): 24.4 µM
- GI50 (M14): 1.72 µM
- Total growth inhibition (TGI) (M14): 3.54 µM
- GI50 (SN12C): 1.98 µM
- Total growth inhibition (TGI) (SN12C): 5.94 µM
- CC50 (SN12C): 65.1 µM
- GI50 (SW-620): 1.69 µM
- Total growth inhibition (TGI) (SW-620): 3.8 µM
- CC50 (SW-620): 8.55 µM
- GI50 (COLO 205): 1.95 µM
- Total growth inhibition (TGI) (COLO 205): 4.24 µM
- GI50 (RPMI-8226): 0.92 µM
- Total growth inhibition (TGI) (RPMI-8226): > 100 µM
- CC50 (RPMI-8226): > 100 µM
- GI50 (SF-268): 1.67 µM
- Total growth inhibition (TGI) (SF-268): 3.6 µM
- CC50 (SF-268): 7.77 µM
- GI50 (U251): 1.66 µM
- Total growth inhibition (TGI) (U251): 3.1 µM
- GI50 (MDA-MB-231): 1.47 µM
- Total growth inhibition (TGI) (MDA-MB-231): 2.98 µM
- CC50 (MDA-MB-231): 60.1 µM

— publication PMC12298351, “Novel 3,19-(N-Phenyl-3-(4-fluorophenyl)-pyrazole) Acetal of Andrographolide Promotes Cell Cycle Arrest and Apoptosis in MDA-MB-231 Breast Cancer Cells” (Pharmaceuticals, 2025)
